Several values for one entry are separate records, joined by “and”; a condition that tells them apart may be missing. Identical values can stand only once.
Biological target: 5-hydroxytryptamine receptor 4 (Homo sapiens, UniProt Q13639)
Sequence (Q13639 whole entry): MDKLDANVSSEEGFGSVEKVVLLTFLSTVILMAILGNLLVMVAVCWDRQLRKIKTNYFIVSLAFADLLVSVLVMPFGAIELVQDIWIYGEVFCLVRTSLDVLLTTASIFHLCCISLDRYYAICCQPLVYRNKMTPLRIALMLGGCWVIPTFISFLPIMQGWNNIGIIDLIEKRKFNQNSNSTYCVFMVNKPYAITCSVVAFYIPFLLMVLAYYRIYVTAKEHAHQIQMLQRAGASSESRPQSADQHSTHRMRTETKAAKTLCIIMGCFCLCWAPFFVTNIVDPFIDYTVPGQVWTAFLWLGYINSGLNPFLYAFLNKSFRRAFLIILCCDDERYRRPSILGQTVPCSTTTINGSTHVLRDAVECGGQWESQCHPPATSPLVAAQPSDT

SMILES | Ki
CCCCN1CCC(COC(=O)c2cc(Cl)c(N)c3c2OCCO3)CC1 [CAS_121881] | 0.06 nM and 0.03 nM
Cn1cc(C(=O)OCC2CCN(CCNS(C)(=O)=O)CC2)c2ccccc21 [GR 113808] | 0.31 nM and 0.5 nM
COc1ccc2[nH]cc(C=NN=C(N)NCCCCO)c2c1 [SDZ-HTF-919] | 15.8 nM and 10 nM and 25.1 nM
CCOc1cc(N)c(Cl)cc1C(=O)NCC1CN(Cc2ccc(F)cc2)CCO1 (stereo not given) [SMR000469200] | 200 nM and 631 nM and 126 nM
COc1ccc2[nH]cc(CCN)c2c1 [tryptamine, 5-Methoxy] | 794 nM
